The source of these data is patent US12544463B2, “Deuterium substituted positron emission tomography (PET) imaging agents and their pharmacological application” (Five Eleven Pharma Inc., priority 2017, dated 2026).

As a reminder, the Ki is the equilibrium dissociation constant of an inhibitor or competing ligand from its target. A word on the Kd: it is the concentration at which binding is half-saturated.

Read-outs that look alike come from different tables or passages of the source.

The target in data set [1] is T1, vesicular monoamine transporter 2 (VMAT2) (Rattus norvegicus, UniProt Q01827).
T1 construct: Tissue homogenates of striatum (dissected from rat brain) were prepared; from tissue; host or cells: rat brain striatum homogenate
T1 sequence (Q01827 whole entry): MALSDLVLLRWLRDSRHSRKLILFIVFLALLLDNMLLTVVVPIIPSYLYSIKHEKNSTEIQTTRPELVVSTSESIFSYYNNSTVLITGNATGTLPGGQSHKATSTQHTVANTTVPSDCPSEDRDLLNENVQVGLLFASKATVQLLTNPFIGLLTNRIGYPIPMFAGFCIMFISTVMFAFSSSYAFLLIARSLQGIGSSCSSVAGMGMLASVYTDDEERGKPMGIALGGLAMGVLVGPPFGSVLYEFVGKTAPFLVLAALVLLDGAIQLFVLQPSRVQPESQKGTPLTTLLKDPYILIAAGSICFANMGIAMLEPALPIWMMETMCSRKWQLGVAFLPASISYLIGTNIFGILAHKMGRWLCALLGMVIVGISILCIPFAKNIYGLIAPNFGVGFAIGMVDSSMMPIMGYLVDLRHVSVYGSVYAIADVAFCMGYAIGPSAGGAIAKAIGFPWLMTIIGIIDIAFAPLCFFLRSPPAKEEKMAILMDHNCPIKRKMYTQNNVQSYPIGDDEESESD
The experiment in a line: In vitro binding assay for Ki determination, rat striatum homogenates. The following applies: for Ki: Avg ± SD, n = 3, read-out: Ki of cold competing drug; for Kd: value used in Cheng-Prusoff equation. On the procedure: Tissue homogenates of striatum (dissected from rat brain) were prepared in 50 mM of HEPES, pH 7.5, and 0.3 M of sucrose. Compounds were examined for their ability to compete for the binding of ^18F-AV-133 or ^18F-AV-133-D6 (^18F-Ia) (0.15-0.2 nM) at concentrations ranging from 10^−7 to 10^−12 M. The binding assays were performed in glass tubes (12×75 mm) in a final volume of 0.25 mL. […] After incubation for 90 min at room temperature, the bound ligand was separated from the free ligand by filtration through glass fiber filters. The filters were washed three times with 4 mL of ice-cold PBS buffer, pH 7.4 and the radioactivity on the filters was counted with a gamma counter (WIZARD^2, Perkin-Elmer).

For data set [2] the following is noted: cited from earlier work; for Biodistribution Blood / Biodistribution Bone / Biodistribution Brain / Biodistribution Liver / Biodistribution Muscle: normal male mice, Choi, 2009.
The conditions of data set [3]: cited from earlier work.
The target of data set [4] is T2, Aβ aggregates of human AD brain homogenates (Homo sapiens, UniProt P05067).
T2 construct: from tissue; host or cells: human Alzheimer's disease brain homogenate
T2 sequence (P05067 672-713 limits assumed): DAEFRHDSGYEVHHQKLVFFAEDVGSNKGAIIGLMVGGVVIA
The experiment in a line: In vitro binding assay for Aβ aggregates of human AD brain homogenates. The conditions noted are these: for Ki: Avg ± SD, n = 3, read-out: Ki of cold competing drug; for Kd: value used in Cheng-Prusoff equation. The procedure:
Competitive binding assays were performed in 12×75 mm borosilicate glass tubes. The reaction mixture contained 100 μL of AD brain homogenates (20-25 μg), 100 μL of [^18F]AV-45 or [^18F]AV-45-D3 (˜150,000 cpm), and 100 μL of competing compounds (10^−5 to 10^−10 M diluted serially in PBS containing 0.1% bovine serum albumin) in a final volume of […]. Nonspecific binding was defined in the presence of 1 μM of IMPY (6-iodo-2-(4′-dimethylamino-)phenyl-imidazo[1,2-a]pyridine) in the same assay tubes. The mixture was incubated for 60 min at room temperature, and the bound and the free radioactivity were separated by vacuum filtration through Whatman GF/B filters using a Brandel M-24R cell harvester, followed by washing with PBS buffer three times. The radioactivity on the filters was counted with a gamma counter (Wizard^2, Perkin-Elmer). Data were analyzed using the nonlinear least-square curve fitting program LIGAND to determine IC50.

For data set [5] the following is noted: humans, cited from earlier work.
Data set [6] has as its target T3, Aβ plaques in AD brain tissue homogenates (Homo sapiens, UniProt P05067).
T3 construct: host or cells: AD brain tissue homogenate
The conditions noted are these: cited from earlier work; for Ki: read-out: inhibition constant Ki.

Data set [7] addresses T4, serotonin transporters (SERT) (Rattus norvegicus, UniProt P31652).
T4 construct: expressed in transfected cells; host or cells: LLC-PK1 (LLC-SERT)
The experiment in a line: In vitro binding assay, LLC-SERT membrane homogenates, [^125I]IDAM. The following applies: for Ki: 0.2 nM [^125I]IDAM, LLC-SERT membranes, read-out: Ki (SERT binding affinity) (converted). The procedure: The membrane homogenates of serotonin transporters (LLC-SERT, which were expressed in a common parental cell line LLC-PK1) were prepared and used for the binding assays. Competitive binding assays were performed in a final volume of 0.25 mL. […] Nonspecific binding was defined with 10 μM citalopram. Incubation was carried out for 60 min at room temperature and the bound ligand was collected on glass fiber filters presoaked with 1% polyethylenimine (SIGMA, St. Louis, MO) and counted in a gamma counter (Wizard^2, Perkin Elmer).

T4 sequence (P31652 whole entry): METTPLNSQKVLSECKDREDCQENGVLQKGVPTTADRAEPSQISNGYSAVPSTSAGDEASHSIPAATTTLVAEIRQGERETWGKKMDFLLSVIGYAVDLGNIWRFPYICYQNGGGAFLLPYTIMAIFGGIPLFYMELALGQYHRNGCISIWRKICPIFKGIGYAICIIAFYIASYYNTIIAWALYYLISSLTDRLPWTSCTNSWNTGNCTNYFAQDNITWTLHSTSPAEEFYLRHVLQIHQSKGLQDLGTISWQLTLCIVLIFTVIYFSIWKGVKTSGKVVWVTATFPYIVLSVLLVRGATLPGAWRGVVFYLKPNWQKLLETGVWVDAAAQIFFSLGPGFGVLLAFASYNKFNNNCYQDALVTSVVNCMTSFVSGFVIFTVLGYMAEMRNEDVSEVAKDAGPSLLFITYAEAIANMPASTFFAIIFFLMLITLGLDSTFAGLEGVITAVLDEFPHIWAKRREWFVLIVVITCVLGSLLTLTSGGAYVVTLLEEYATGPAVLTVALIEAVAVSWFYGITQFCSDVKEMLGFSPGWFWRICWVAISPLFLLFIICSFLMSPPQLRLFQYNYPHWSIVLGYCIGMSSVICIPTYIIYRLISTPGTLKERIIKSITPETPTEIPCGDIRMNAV
T3 sequence (P05067 672-713 limits assumed): as the sequence (P05067 672-713 limits assumed) above

For the compound `[2H]C([2H])(F)C([2H])([2H])C([2H])([2H])Oc1cc2c(cc1OC)[C@H]1C[C@@H](O)[C@H](CC(C)C)CN1CC2` [Ia (AV-133-D6), (2R,3R,11R)-9-(3-Fluoropropoxy-[1,1,2,2,3,3-D6])-3-isobutyl-10-methoxy-2,3,4,6,7,11b-hexahydro-1H-pyrido[2,1-a]isoquinolin-2-ol], the values for the Ki in data set [1] (hot ligand ^18F-AV-133-D6) and in data set [1] (hot ligand ^18F-AV-133) were 0.33 ± 0.06 nM and 0.32 ± 0.07 nM, respectively. Moreover, the Kd in data set [1] stood at 0.11 nM.
With `COc1cc2c(cc1OCCCF)CCN1C[C@@H](CC(C)C)[C@H](O)C[C@H]21` [AV-133, reference compound], the Ki is 0.26 ± 0.03 nM in data set [1] (hot ligand ^18F-AV-133-D6) and 0.33 ± 0.02 nM in data set [1] (hot ligand ^18F-AV-133). The Kd in data set [1] turned out to be 0.11 nM.
Consider `Nc1ccc(/C=C/c2ccc(OCCOCCOCC[18F])nc2)cc1` [^18F-AV-160], for which the brain uptake in data set [2] (mice, 2 min after injection) is given as 4.5 % ID/g; in data set [2] (mice, 60 min) it was 1.8 % ID/g. The “share of the plasma metabolites” value in data set [3] (mice, 30 min after injection) is “about 48%”.
As to `[2H]C([2H])([2H])Nc1ccc(/C=C/c2ccc(OCCOCCOCCF)nc2)cc1` [AV-45-D3, IIa1], the inhibitory constant (Ki) in data set [4] (hot ligand ^18F-AV-45-D3) was found to be 3.25 ± 0.82 nM; in data set [4] (hot ligand ^18F-AV-45) it was 3.44 ± 1.22 nM. In data set [4], the affinity, expressed as Kd, was 3.51 nM.
Take `CNc1ccc(/C=C/c2ccc(OCCOCCOCCF)nc2)cc1` [^18F-AV-45]: the “decrease of plasma radioactivity” value in data set [5] (within 10 min of the injection) is given as “approximately 80%”. The “decrease of plasma radioactivity” value in data set [5] (within 20 min of the injection) was “approximately 90%”. Besides, the “initial brain uptake relative to metabolite ^18F-AV-160” value in data set [2] (mice, initial uptake) is reported as 1.5 fold. In addition, in data set [2] (2 min), the “Biodistribution Blood” value was 2.51 ± 0.31 % Dose/g, the “Biodistribution Bone” value is reported as 1.33 ± 0.24 % Dose/g, the “Biodistribution Brain” value is on record as 7.33 ± 1.54 % Dose/g and the “Biodistribution Liver” value was 16.3 ± 5.38 % Dose/g. In data set [2] (2 min), the “Biodistribution Muscle” value is 3.49 ± 0.33 % Dose/g. In addition, in data set [2] (60 min), the “Biodistribution Blood” value is 2.37 ± 0.27 % Dose/g, the “Biodistribution Bone” value is listed as 3.66 ± 0.30 % Dose/g, the “Biodistribution Brain” value is 1.88 ± 0.14 % Dose/g and the “Biodistribution Liver” value is 11.1 ± 1.83 % Dose/g. Also, in data set [2] (60 min), the “Biodistribution Muscle” value is listed as 1.33 ± 0.08 % Dose/g. In addition, in data set [2] (120 min), the “Biodistribution Blood” value was 1.96 ± 0.23 % Dose/g, the “Biodistribution Bone” value is 6.48 ± 0.34 % Dose/g, the “Biodistribution Brain” value was 1.80 ± 0.20 % Dose/g and the “Biodistribution Liver” value is recorded as 8.96 ± 0.28 % Dose/g. For the same compound, the “Biodistribution Muscle” value in data set [2] (120 min) is reported as 1.02 ± 0.07 % Dose/g. In data set [2] (180 min), the “Biodistribution Blood” value is given as 1.39 ± 0.13 % Dose/g, the “Biodistribution Bone” value is 7.83 ± 1.08 % Dose/g, the “Biodistribution Brain” value was 1.48 ± 0.15 % Dose/g and the “Biodistribution Liver” value was 5.39 ± 0.31 % Dose/g. Moreover, the “Biodistribution Muscle” value in data set [2] (180 min) is 0.78 ± 0.09 % Dose/g. Besides, the “parent remained in the plasma” value in data set [3] (mice, 30 min after intravenous injection) is on record as 30%. Further, the “biologic T1/2 in mouse plasma” value in data set [3] (mouse plasma, estimated) was “less than 30 min”.
`Nc1ccc(C=Cc2ccc(OCCOCCOCCF)nc2)cc1` [AV-160]: in data set [6], the “reduction of binding affinity vs nonradioactive AV-45” value is at least 20 fold and the Ki is 54 ± 5 nM.
On to `CN(C)Cc1cc(O)ccc1Sc1ccc(Cl)cc1N` [III-4-17], for which the Ki in data set [7] is 0.03 nM.
On to `[2H]C([2H])(F)C([2H])([2H])C([2H])([2H])Oc1ccc(Sc2ccc(Cl)cc2N)c(CN(C)C)c1` [III-4-25], for which the Ki in data set [7] was 0.009 nM.
Regarding `CNc1ccc(/C=C/c2ccc(OCCOCCOCCF)nc2)cc1` [AV-45, reference compound], the Ki in data set [6] was 2.87 ± 0.17 nM; in data set [4] (hot ligand ^18F-AV-45-D3) it was 3.24 ± 0.76 nM; in data set [4] (hot ligand ^18F-AV-45) it was 4.02 ± 0.22 nM. In addition, the equilibrium dissociation constant (Kd) in data set [4] turned out to be 3.51 nM.
In the case of `CN(C)Cc1cc(O)ccc1Sc1ccc(F)cc1N` [III-4-19], the Ki in data set [7] is 0.22 nM.
Still for that read-out and setting: the result for `[2H]C([2H])([2H])N(Cc1cc(O)ccc1Sc1ccccc1N)C([2H])([2H])[2H]` [III-2-4] reads 2.02 ± 0.54 nM.
On to `CN(C)Cc1ccccc1Sc1ccc(I)cc1CO` [[^125I]IDAM, reference compound], for which, in data set [7] (value used in Cheng-Prusoff equation), binding was characterised by a dissociation constant (Kd) of 0.2 nM.
Regarding `[2H]C([2H])(F)C([2H])([2H])C([2H])([2H])Oc1ccc(Sc2ccc(I)cc2N)c(CN(C)C)c1` [III-4-28], the Ki in data set [7] was 0.008 nM.
For `[2H]C([2H])(F)C([2H])([2H])C([2H])([2H])Oc1ccc(Sc2ccc(F)cc2N)c(CN(C)C)c1` [III-4-27], in data set [7], the Ki is 0.024 nM.
Regarding `[2H]C([2H])(F)C([2H])([2H])C([2H])([2H])Oc1ccc(Sc2ccccc2N)c(CN)c1` [III-5-8], in data set [7], the Ki is 44.9 ± 2.5 nM.
For `[2H]C([2H])([2H])Nc1ccc(/C=C/c2ccc(OCCOCCOCCF)cc2)cc1` [AV-1-D3, IIa2], the inhibitory constant (Ki) came out at 4.15 ± 0.75 nM in data set [4] (hot ligand ^18F-AV-45-D3) and 3.35 ± 0.88 nM in data set [4] (hot ligand ^18F-AV-45).
Turning to `[2H]C([2H])([2H])N(Cc1cc(OC([2H])([2H])C([2H])([2H])C([2H])([2H])F)ccc1Sc1ccccc1N)C([2H])([2H])[2H]` (single isomer, unassigned) [III-3 (FPBM- D12)], the Ki in data set [7] was 0.086 ± 0.029 nM.
Take `[2H]C([2H])(F)C([2H])([2H])C([2H])([2H])Oc1ccc(Sc2ccccc2N)c(CN(C)C)c1` (single isomer, unassigned) [III-4-2]: the Ki in data set [7] was 0.14 ± 0.06 nM.
